According to patent US10233186B2, “Inhibitors of activin receptor-like kinase” (BLUEPRINT MEDICINES CORPORATION, priority 2016, dated 2019):

Legend:
human ALK2 R206H = molecular target: T1, human ALK2 R206H (Homo sapiens, UniProt Q04771, R206H); assay: Cell-based ALK2-R206H cell activity assay (Smad1-Ser463/Ser465 phosphorylation by AlphaLISA in HEK293-ALK2-R206H cells); conditions: read-out: Cell Line (Cell Assay IC50)
T1 construct: expressed in transfected cells; host or cells: HEK293 (ATCC CRL1573), lentivirus transduction, blasticidin selection
T1 sequence (Q04771 21-509 R206H): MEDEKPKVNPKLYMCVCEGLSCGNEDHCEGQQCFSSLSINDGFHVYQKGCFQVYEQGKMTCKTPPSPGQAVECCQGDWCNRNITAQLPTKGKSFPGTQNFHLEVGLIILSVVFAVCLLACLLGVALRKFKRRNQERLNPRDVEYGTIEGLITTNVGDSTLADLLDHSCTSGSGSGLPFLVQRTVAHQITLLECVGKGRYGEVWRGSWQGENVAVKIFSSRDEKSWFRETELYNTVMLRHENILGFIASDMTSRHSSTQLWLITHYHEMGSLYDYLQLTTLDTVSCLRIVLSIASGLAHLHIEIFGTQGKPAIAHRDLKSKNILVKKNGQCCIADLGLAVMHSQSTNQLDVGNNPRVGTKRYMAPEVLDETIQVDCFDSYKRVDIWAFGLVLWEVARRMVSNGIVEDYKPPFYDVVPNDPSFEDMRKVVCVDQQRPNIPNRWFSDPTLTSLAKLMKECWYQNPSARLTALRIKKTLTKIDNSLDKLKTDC
Description: A HEK293 (ATCC, Cat^# CRL1573) based stable cell line expressing human ALK2 R206H cDNA (synthesized by GeneScript, Piscataway, N.J.) and a FLAG tag at the C-terminus was generated by lentivirus transduction and subsequent blasticidin (Life Technologies, Cat^#-A1113902) selection at 10 μg/ml for >2 wks. This cell line was named HEK293-ALK2-R206H.
Test compounds were first diluted to 4 mM or 0.4 mM and then serially diluted 3-fold into 10 different concentrations using DMSO. […] Two μl of the diluted compounds were then dispensed into the HEK293-ALK2-R206H cell-containing wells of the microplates in duplicates. In this way, each compound was tested in 10 doses (3-fold serial dilution with the top concentration being 10 μM or 1 μM). Liquid handling was achieved using a Bravo Automated Liquid Handling Platform (Agilent Technologies). DMSO without compound was used as a negative control. The positive control was 1 μM LDN193189, a known bone morphogenetic protein (BMP inhibitor).
The 10-point dose response curve was used to calculate the IC50 values.
(§1) Blank values in the table indicate that the particular compound was not tested in this assay.

[1] = molecular target: T2, ALK2 R206H (GST-tagged mutant ALK2) (Homo sapiens, UniProt Q04771, R206H); assay: ALK binding assay (LANTHASCREEN TR-FRET competitive binding, displacement of Kinase Tracer 178); conditions: ALK2 R206H, LANTHASCREEN TR-FRET competitive binding; read-out: Binding Assay (IC50)
T2 construct: purchased Carna Bioscience or ThermoFisher 09-148 or PV6232
T2 sequence (Q04771 21-509 R206H): T1 sequence (Q04771 21-509 R206H)
Description: Binding assays were conducted using the LANTHASCREEN® technology (ThermoFisher Scientific). LANTHASCREEN® is a competitive binding, displacement assay where the assumed steady state occupancy of the binding site is measured using a time-resolved, fluorescence energy transfer (TR-FRET) readout between a fluorescent tracer and Europium (Eu)-tagged antibody specific for the kinase or expression tag (e.g. GST) of interest. Displacement of the tracer by a compound of the disclosure reduces, and is directly proportional to, the TR-FRET between the tracer and the antibody. Tracer was used at a concentration equal to or near to its Kd for the kinase.
In all cases, the kinase (2-5 nM) was mixed with Eu-tagged antibody (10 nM) mix and tracer (50 nM) were incubated with test compound titrations prepared in 100% DMSO (1% DMSO final) for 30 minutes at room temperature. All reagents and compounds were dissolved in Kinase Buffer A (ThermoFisher) to achieve the final concentration. […] This readout was normalized to 0% and 100% inhibited control wells, plotted against inhibitor concentration, and fitted to a 4-parameter log dose response curve.
as §1

Structure (SMILES) | IC50 (human ALK2 R206H) [nM] | IC50 [1] [nM]
CC(C)(C#N)c1ccc(-c2cc3c(N4CCN(C(=O)C5CC5)CC4)ccnn3c2)cc1 [Compound 110] | 100 to 500 | 10 to 50
O=C(C1CC1)N1CCN(c2ccnn3cc(-c4ccc(C5=NCCN5)cc4)cc23)CC1 [Compound 111, cyclopropyl(4-(6-(4-(4,5-dihydro-1H-imidazol-2-yl)phenyl)pyrrolo[1,2-b]pyridazin-4-yl)piperazin-1-yl)methanone] | 100 to 500 | < 10
O=C(C1CC1)N1CCN(c2ccnn3cc(-c4ccc(C5CCNC5)cc4)cc23)CC1 (stereo not shown) [Compound 112] | 100 to 500 | < 10
O=C(C1CC1)N1CCN(c2ccnn3cc(-c4ccc(C5CCCN5)cc4)cc23)CC1 (stereo not shown) [Compound 113] | < 100 | < 10
O=C(C1CC1)N1CCN(c2ccnn3cc(-c4ccc(OC5CNC5)cc4)cc23)CC1 [Compound 115] | 100 to 500 | < 10
O=C(C1CC1)N1CCN(c2ccnn3cc(-c4cnn(C5CCCNC5)c4)cc23)CC1 (stereo not shown) [Compound 116] | < 100 | < 10
O=C(C1CC1)N1CCN(c2ccnn3cc(-c4cnn(C5CCNCC5)c4)cc23)CC1 [Compound 117] | 100 to 500 | < 10
CCN1CC(n2cc(-c3cc4c(N5CCN(C(=O)C6CC6)CC5)ccnn4c3)cn2)C1 [Compound 118] | 100 to 500 | < 10
O=C(C1CC1)N1CCN(c2ccnn3cc(-c4ccc5c(c4)COC54CNC4)cc23)CC1 [Compound 120] | 100 to 500 | < 10
O=C(C1CC1)N1CCN(c2ccnn3cc(-c4ccc(C5CCNCC5)cc4)cc23)CC1 [Compound 122] | < 100 | < 10
O=C(C1CC1)N1CCN(c2ccnn3cc(-c4ccc(C5CCCNC5)cc4)cc23)CC1 (stereo not shown) [Compound 123] | 100 to 500 | < 10
CCN1CC(c2ccc(-c3cc4c(N5CCN(C(=O)C6CC6)CC5)ccnn4c3)cc2)C1 [Compound 124] | < 100 | < 10
O=C(C1CC1)N1CCN(c2ccnn3cc(-c4ccc(C5CCCCN5)cc4)cc23)CC1 (stereo not shown) [Compound 125] | < 100 | < 10
O=C(C1CC1)N1CCN(c2ccnn3cc(-c4ccc(N5CCNCC5)cc4)cc23)CC1 [Compound 127, cyclopropyl(4-(6-(4-(piperazin-1-yl)phenyl)pyrrolo[1,2-b]pyridazin-4-yl)piperazin-1-yl)methanone] | < 100 | < 10
O=C(C1CC1)N1CCN(c2ccnn3cc(-c4cccc(C5CNCCO5)c4)cc23)CC1 (stereo not shown) [Compound 128] | 100 to 500 | 10 to 50
O=C(C1CC1)N1CCN(c2ccnn3cc(-c4ccc(C5CNCCO5)cc4)cc23)CC1 (stereo not shown) [Compound 129] | < 100 | < 10
O=C(C1CC1)N1CCN(c2ccnn3cc(-c4ccc([C@H]5CNCCO5)cc4)cc23)CC1 [Compound 130, (S)-cyclopropyl(4-(6-(4-(morpholin-2-yl)phenyl)pyrrolo[1,2-b]pyridazin-4-yl)piperazin-1-yl)methanone] | 100 to 500 | < 10
O=C(C1CC1)N1CCN(c2ccnn3cc(-c4ccc([C@@H]5CNCCO5)cc4)cc23)CC1 [Compound 131, (R)-cyclopropyl(4-(6-(4-(morpholin-2-yl)phenyl)pyrrolo[1,2-b]pyridazin-4-yl)piperazin-1-yl)methanone] | 100 to 500 | < 10
O=C(C1CC1)N1CCN(c2ccnn3cc(-c4ccc(OCC5CCN5)cc4)cc23)CC1 (stereo not shown) [Compound 132] | < 100 | < 10
O=C(C1CC1)N1CCN(c2ccnn3cc(-c4ccc(OC5CCNC5)cc4)cc23)CC1 (stereo not shown) [Compound 133] | < 100 | < 10
O=C(C1CC1)N1CCN(c2ccnn3cc(-c4ccc(OCC5CNC5)cc4)cc23)CC1 [Compound 134] | 100 to 500 | < 10
O=C(C1CC1)N1CCN(c2ccnn3cc(-c4ccc(N5CCNCC5)nc4)cc23)CC1 [Compound 135] | 100 to 500 | 10 to 50

Results, then the molecule that gave them:

IC50 (human ALK2 R206H) [nM] | IC50 [1] [nM] | Structure (SMILES)
< 100 | < 10 | O=C(C1CC1)N1CCN(c2ccnn3cc(-c4ccc(C5CNCC5F)cc4)cc23)CC1 (stereo not shown) [Compound 137]
< 100 | < 10 | CCNC(=O)N1CCN(c2ccnn3cc(-c4ccc(N5CCNCC5)cc4)cc23)CC1 [Compound 140]
100 to 500 | < 10 | CCNC(=O)N1CCN(c2ccnn3cc(-c4ccc([C@@H]5CNCCO5)cc4)cc23)CC1 [Compound 142]
< 100 | < 10 | CCOC(=O)N1CCN(c2ccnn3cc(-c4ccc(N5CCNCC5)cc4)cc23)CC1 [Compound 143]
100 to 500 | < 10 | CCOC(=O)N1CCN(c2ccnn3cc(-c4ccc(C5CNCCO5)cc4)cc23)CC1 (stereo not shown) [Compound 144]
< 100 | < 10 | CCOC(=O)N1CCN(c2ccnn3cc(-c4ccc(C5CNCC5F)cc4)cc23)CC1 (stereo not shown) [Compound 145]
100 to 500 | < 10 | O=C(C1CC1)N1CCN(c2ccnn3cc(-c4ccc(N5CC6(CNC6)C5)cc4)cc23)CC1 [Compound 146]
< 100 | < 10 | CCN1CCC(c2ccc(-c3cc4c(N5CCN(C(=O)C6CC6)CC5)ccnn4c3)cc2)C1 (stereo not shown) [Compound 147]
< 100 | < 10 | CCN1CC[C@@H](c2ccc(-c3cc4c(N5CCN(C(=O)C6CC6)CC5)ccnn4c3)cc2)C1 [Compound 148]
< 100 | < 10 | CCN1CC[C@H](c2ccc(-c3cc4c(N5CCN(C(=O)C6CC6)CC5)ccnn4c3)cc2)C1 [Compound 149]
< 100 | < 10 | CC(C)N1CC(c2ccc(-c3cc4c(N5CCN(C(=O)C6CC6)CC5)ccnn4c3)cc2)C1 [Compound 150, cyclopropyl(4-(6-(4-(1-isopropylazetidin-3-yl)phenyl)pyrrolo[1,2-b]pyridazin-4-yl)piperazin-1-yl)methanone]
< 100 | < 10 | C[C@@H]1CN(c2ccnn3cc(-c4ccc(N5CCNCC5)cc4)cc23)CCN1C(=O)C1CC1 [Compound 152]
100 to 500 | < 10 | CN1CCN(c2ccc(-c3cc4c(N5CCN(C(=O)C6CC6)CC5)ccnn4c3)cc2)CC1 [Compound 153]
100 to 500 | < 10 | O=C(C1CCC1)N1CCN(c2ccnn3cc(-c4ccc(N5CCNCC5)cc4)cc23)CC1 [Compound 154]
100 to 500 | < 10 | C[C@@H]1CN(c2ccc(-c3cc4c(N5CCN(C(=O)C6CC6)CC5)ccnn4c3)cc2)CCN1 [Compound 155]
< 100 | < 10 | C[C@H]1CN(c2ccc(-c3cc4c(N5CCN(C(=O)C6CC6)CC5)ccnn4c3)cc2)CCN1 [Compound 156]
100 to 500 | < 10 | NC1CCN(c2ccc(-c3cc4c(N5CCN(C(=O)C6CC6)CC5)ccnn4c3)cc2)CC1 [Compound 158]
< 100 | < 10 | O=C(C1CC1)N1CCN(c2ccnn3cc(-c4ccc(OC5CCCNC5)cc4)cc23)CC1 (stereo not shown) [Compound 159]
100 to 500 | < 10 | O=C(C1CC1)N1CCN(c2ccnn3cc(-c4ccc(OC5CCNCC5)cc4)cc23)CC1 [Compound 160]
< 100 | < 10 | CCN1CC(O)(c2ccc(-c3cc4c(N5CCN(C(=O)C6CC6)CC5)ccnn4c3)cc2)C1 [Compound 161]
< 100 | < 10 | O=C(C1CC1)N1CCN(c2ccnn3cc(-c4ccc(O[C@@H]5CCCNC5)cc4)cc23)CC1 [Compound 162]
< 100 | < 10 | O=C(C1CC1)N1CCN(c2ccnn3cc(-c4ccc(O[C@H]5CCCNC5)cc4)cc23)CC1 [Compound 163]
